Source: PubChem BioAssay AID248 (DTP/NCI, 2004)
Several values for one entry are separate records, joined by “and”; a condition that tells them apart may be missing. Equal values may be shown once. Inconclusive results and toxic doses are left out. Rule as the data show it: active = T/C of 150% or more; inactive = T/C below 125%.

Tested on: L1210 leukemia ip in BDF1 mice, survival T/C
Assay: NCI In Vivo Anticancer Drug Screen. Data for tumor model L1210 Leukemia (intraperitoneal) in B6D2F1 (BDF1) mice
Details: endpoint: mean survival time, higher = longer survival
Method in brief: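 Tumor was transplanted into mice, which were then dosed with test compound or vehicle alone. Survival was recorded for each group, and the treated figure was expressed relative to the control figure.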

[1] = dose: 75.0 mg/kg/injection, schedule: Q01DX001 (ip), vehicle: saline
[2] = dose: 50.0 mg/kg/injection, schedule: Q01DX009 (ip), vehicle: saline with Tween-80
[3] = dose: 100.0 mg/kg/injection, schedule: Q01DX009 (ip), vehicle: saline with Tween-80
[4] = dose: 100.0 mg/kg/injection, schedule: Q04DX003 (ip), vehicle: saline with Tween-80
[5] = dose: 200.0 mg/kg/injection, schedule: Q01DX009 (ip), vehicle: saline with Tween-80
[6] = dose: 200.0 mg/kg/injection, schedule: Q04DX003 (ip), vehicle: saline with Tween-80
[7] = dose: 400.0 mg/kg/injection, schedule: Q01DX009 (ip), vehicle: saline with Tween-80
[8] = dose: 400.0 mg/kg/injection, schedule: Q04DX003 (ip), vehicle: saline with Tween-80
[9] = dose: 100.0 mg/kg/injection, schedule: Q04DX003 (ip), vehicle: Klucel (hydroxypropylcellulose) (HPC)
[10] = dose: 200.0 mg/kg/injection, schedule: Q04DX003 (ip), vehicle: Klucel (hydroxypropylcellulose) (HPC)
[11] = dose: 100.0 mg/kg/injection, schedule: Q01DX009 (ip), vehicle: Klucel (hydroxypropylcellulose) (HPC)
[12] = dose: 200.0 mg/kg/injection, schedule: Q01DX009 (ip), vehicle: Klucel (hydroxypropylcellulose) (HPC)
[13] = dose: 400.0 mg/kg/injection, schedule: Q01DX009 (ip), vehicle: Klucel (hydroxypropylcellulose) (HPC)
[14] = dose: 400.0 mg/kg/injection, schedule: Q04DX003 (ip), vehicle: Klucel (hydroxypropylcellulose) (HPC)
[15] = dose: 100.0 mg/kg/injection, schedule: Q04DX003 (ip), vehicle: saline
[16] = dose: 200.0 mg/kg/injection, schedule: Q04DX003 (ip), vehicle: saline
[17] = dose: 100.0 mg/kg/injection, schedule: Q01DX001 (ip), vehicle: saline

Measured: T/C

Clc1cc(Cl)nc(N2CC2)n1
inactive: dose: 0.02 mg/kg/injection, schedule: Q01DX Z (ip), vehicle: methylcellulose (MC) 91 % of control | dose: 6.25 mg/kg/injection, schedule: Q01DX009 (ip), vehicle: acetone 108 % of control | dose: 12.5 mg/kg/injection, schedule: Q01DX009 (ip), vehicle: acetone 111 % of control | dose: 12.5 mg/kg/injection, schedule: Q04DX003 (ip), vehicle: saline 98 % of control | dose: 25.0 mg/kg/injection, schedule: Q04DX003 (ip), vehicle: saline 92 % of control

C[N+](C)(Cc1ccccc1)Cc1ccccc1
inactive: dose: 5.0 mg/kg/injection, schedule: Q01DX001 (ip), vehicle: saline 96 % of control | dose: 10.0 mg/kg/injection, schedule: Q01DX001 (ip), vehicle: saline 98 % of control | dose: 20.0 mg/kg/injection, schedule: Q01DX001 (ip), vehicle: saline 102 % of control | dose: 40.0 mg/kg/injection, schedule: Q01DX001 (ip), vehicle: saline 102 % of control | [1] 105 % of control | dose: 80.0 mg/kg/injection, schedule: Q01DX001 (ip), vehicle: saline 104 % of control

CC(=O)Nc1ccccc1Sc1ccc(Br)cc1[N+](=O)[O-]
inactive: dose: 75.0 mg/kg/injection, schedule: Q04DX003 (ip), vehicle: saline 91 % of control | dose: 150.0 mg/kg/injection, schedule: Q04DX003 (ip), vehicle: saline 90 % of control | dose: 300.0 mg/kg/injection, schedule: Q04DX003 (ip), vehicle: saline 87 % of control

O=C(O)c1cc(O)ccc1N=Nc1ccccc1
inactive: dose: 100.0 mg/kg/injection, schedule: Q01DX001 (ip), vehicle: carboxymethylcellulose (CMC) 95 % of control | dose: 200.0 mg/kg/injection, schedule: Q01DX001 (ip), vehicle: carboxymethylcellulose (CMC) 95 % of control | dose: 400.0 mg/kg/injection, schedule: Q01DX001 (ip), vehicle: carboxymethylcellulose (CMC) 98 % of control

CCCCNC(C)(C)CSS(=O)(=O)O
inactive: [2] 97 % of control | [3] 109 % of control | [4] 96 % of control | [5] 103 % of control | [6] 96 % of control | [7] 103 % of control | [8] 96 % of control

CCOC(=O)C(OCc1ccccc1)(C(=O)N1CCCCC1=O)C(C)C (stereo not drawn)
inactive: dose: 25.0 mg/kg/injection, schedule: Q04DX003 (ip), vehicle: Klucel (hydroxypropylcellulose) (HPC) 119 % of control | dose: 50.0 mg/kg/injection, schedule: Q04DX003 (ip), vehicle: Klucel (hydroxypropylcellulose) (HPC) 97 % of control | [9] 113 % of control | [10] 88 % of control

NC(CSSCC(N)=NC1CCCCC1)=NC1CCCCC1
inactive: dose: 3.0 mg/kg/injection, schedule: Q01DX009 (ip), vehicle: saline 96 % of control and 103 % of control | dose: 6.0 mg/kg/injection, schedule: Q01DX009 (ip), vehicle: saline 106 % of control and 90 % of control | dose: 6.25 mg/kg/injection, schedule: Q04DX002 (ip), vehicle: saline with Tween-80 124 % of control | dose: 12.0 mg/kg/injection, schedule: Q01DX009 (ip), vehicle: saline 103 % of control and 104 % of control | dose: 12.5 mg/kg/injection, schedule: Q01DX001 (ip), vehicle: saline with Tween-80 94 % of control | dose: 12.5 mg/kg/injection, schedule: Q01DX009 (ip), vehicle: carboxymethylcellulose (CMC) 100 % of control and 105 % of control | dose: 12.5 mg/kg/injection, schedule: Q04DX002 (ip), vehicle: saline with Tween-80 109 % of control | dose: 25.0 mg/kg/injection, schedule: Q01DX001 (ip), vehicle: saline with Tween-80 100 % of control | dose: 25.0 mg/kg/injection, schedule: Q01DX009 (ip), vehicle: carboxymethylcellulose (CMC) 103 % of control | dose: 25.0 mg/kg/injection, schedule: Q04DX002 (ip), vehicle: carboxymethylcellulose (CMC) 96 % of control and 91 % of control | dose: 25.0 mg/kg/injection, schedule: Q04DX002 (ip), vehicle: saline with Tween-80 102 % of control | dose: 50.0 mg/kg/injection, schedule: Q04DX002 (ip), vehicle: carboxymethylcellulose (CMC) 95 % of control | dose: 100.0 mg/kg/injection, schedule: Q04DX003 (ip), vehicle: carboxymethylcellulose (CMC) 104 % of control | dose: 200.0 mg/kg/injection, schedule: Q04DX003 (ip), vehicle: carboxymethylcellulose (CMC) 96 % of control

O=C(Oc1ccccc1)c1ccccc1Cl
inactive: [11] 102 % of control | [3] 96 % of control | [9] 96 % of control | [4] 100 % of control | [12] 98 % of control | [5] 101 % of control | [10] 96 % of control | [6] 100 % of control | [13] 95 % of control | [7] 97 % of control | [14] 98 % of control | [8] 110 % of control

COc1cc2c(cc1OC)CC(=O)NC2
inactive: [15] 95 % of control | [16] 97 % of control | dose: 400.0 mg/kg/injection, schedule: Q04DX003 (ip), vehicle: saline 97 % of control

CC(O)C1CCC2C3CCC4CC(SC(=O)c5ccccc5)CCC4(C)C3CCC12C (stereo not drawn)
inactive: dose: 50.0 mg/kg/injection, schedule: Q01DX001 (sc), vehicle: steriod suspending solution 103 % of control | dose: 100.0 mg/kg/injection, schedule: Q01DX001 (sc), vehicle: steriod suspending solution 97 % of control | dose: 200.0 mg/kg/injection, schedule: Q01DX001 (sc), vehicle: steriod suspending solution 97 % of control | dose: 400.0 mg/kg/injection, schedule: Q01DX001 (sc), vehicle: steriod suspending solution 94 % of control

COc1ccc(CN2CCCN(Cc3ccc(OC)cc3OC)C2c2ccccn2)c(OC)c1
inactive: dose: 50.0 mg/kg/injection, schedule: Q01DX001 (ip), vehicle: saline 101 % of control | [17] 95 % of control | dose: 200.0 mg/kg/injection, schedule: Q01DX001 (ip), vehicle: saline 91 % of control | dose: 400.0 mg/kg/injection, schedule: Q01DX001 (ip), vehicle: saline 89 % of control

CCN(CC)CCN(C)CCN(CC)CC
inactive: dose: 50.0 mg/kg/injection, schedule: Q01DX009 (ip), vehicle: saline 91 % of control | dose: 100.0 mg/kg/injection, schedule: Q01DX009 (ip), vehicle: saline 102 % of control | [15] 93 % of control | dose: 200.0 mg/kg/injection, schedule: Q01DX009 (ip), vehicle: saline 101 % of control | [16] 98 % of control

C=CC1CC1(C(=O)O)C(=O)O (stereo not drawn)
inactive: [3] 93 % of control | [4] 98 % of control | [5] 96 % of control | [6] 98 % of control | [7] 90 % of control | [8] 93 % of control

Nc1ccc(CCc2nc(N)[nH]c(=O)c2CCCCc2ccccc2)cc1
inactive: dose: 25.0 mg/kg/injection, schedule: Q01DX001 (ip), vehicle: Klucel (hydroxypropylcellulose) (HPC) 98 % of control | dose: 50.0 mg/kg/injection, schedule: Q01DX001 (ip), vehicle: Klucel (hydroxypropylcellulose) (HPC) 96 % of control | dose: 100.0 mg/kg/injection, schedule: Q01DX001 (ip), vehicle: Klucel (hydroxypropylcellulose) (HPC) 88 % of control

CC1CCC(C(O)(C(=O)O)C2CCCCC2)CC1 (stereo not drawn)
inactive: dose: 75.0 mg/kg/injection, schedule: Q01DX001 (ip), vehicle: other 104 % of control | dose: 150.0 mg/kg/injection, schedule: Q01DX001 (ip), vehicle: other 101 % of control

CCCCCCCCCCS(=O)(=O)CCS(=O)(=O)CCCCCCCCCC
inactive: [9] 97 % of control | [10] 95 % of control | [14] 97 % of control

NC(=O)C#CC(N)=O
inactive: [11] 97 % of control | [9] 95 % of control | [12] 109 % of control | [10] 97 % of control | [13] 92 % of control | [14] 92 % of control

C=CCC(C(C)=O)C(=O)OCC (stereo not drawn)
inactive: [11] 100 % of control | [9] 93 % of control | [12] 96 % of control | [10] 104 % of control | [13] 96 % of control | [14] 97 % of control

CC1(c2ccc[n+](CC(=O)c3ccccc3)c2)OCCO1
inactive: [1] 104 % of control | dose: 150.0 mg/kg/injection, schedule: Q01DX001 (ip), vehicle: saline 105 % of control

OCC1C2CCC(C2)C1CO (stereo not drawn)
inactive: [2] 96 % of control

Cc1ccc(CN(C)N=Nc2ccc(C#N)cc2)cc1
inactive: [4] 96 % of control | [6] 87 % of control | [8] 94 % of control

CCCCCc1cccc(C)n1
inactive: [17] 96 % of control
